The values that follow come from patent US9498483B2, “2,3,5-trisubstituted thiophene compounds and uses thereof” (priority 2010, dated 2016).

The subject of test [1] is HCV replicon I389luc-ubi-neo/NS3-3′/ET in ET (Huh-lucubineo-ET) cells. Description: Replicon assay (Biological Example 2), luciferase readout. It is filed as cell-based. As to conditions: Hepatitis C virus. An outline of the steps: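 EC50 values come from Hill fits of % inhibition of replicon-driven firefly luciferase, relative to no-compound wells. Compounds were serially diluted (10 points, 3-fold, 0.1 nM–50 μM final, 0.5% DMSO) onto ET replicon cells and read after 48 h.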
(Replicon systems follow genome replication, usually without infectious particles.)

The target of the next test is T1, HCV polymerase (Hepatitis C virus genotype 1b, UniProt Q9WMX2).
T1 construct: (His)6 (C); made in house; host or cells: XL-1 cells (E. coli, by own knowledge)
As to the kind of experiment: Polymerase assay of Biological Example 1 (IC50 values of Table 3). It is filed as biochemical. As to conditions: IC50 values of Table 3, polymerase assay of Biological Example 1; read-out: NS5B-enzyme3.

The mark [2] stands for this setting: ET cells, luciferase activity 48 hours after compound.

For the molecule `O=C(O)c1sc(-c2ccccc2)cc1N1C(=O)CN(S(=O)(=O)c2ccc(N3CCC(O)CC3)nc2)CC1C1CCCCC1` (stereo not drawn) [Compound 93, 3-[2-Cyclohexyl-4-(4-hydroxy-3,4,5,6-tetrahydro-2H-[1,2′]bipyridinyl-5′-sulfonyl)-6-oxo-piperazin-1-yl]-5-phenyl-thiophene-2-carboxylic acid], the IC50 was not above 100 nM in test [1] (setting [2]) and 4 nM at HCV polymerase.

For `CC(C)(C)N1CCN(c2ccc(S(=O)(=O)N3CC(=O)N(c4cc(-c5ccccc5)sc4C(=O)O)[C@H](C4CCCCC4)C3)cn2)CC1` [Compound 152, 3-{(R)-4-[6-(4-tert-Butyl-piperazin-1-yl)-pyridine-3-sulfonyl]-2-cyclohexyl-6-oxo-piperazin-1-yl}-5-phenyl-thiophene-2-carboxylic acid], the IC50 in test [1] (setting [2]) is not above 100 nM; on HCV polymerase it was 3 nM.

Regarding `CC(C)(C)C#Cc1cc(N2C(=O)CCC[C@@H]2C2CCCCC2)c(C(=O)O)s1` [Compound 34, 3-((R)-2-Cyclohexyl-6-oxo-piperidin-1-yl)-5-(3,3-dimethyl-but-1-ynyl)-thiophene-2-carboxylic acid], the IC50 in test [1] (setting [2]) is not below 5000 nM; at HCV polymerase, 1050 nM.

For `O=C(O)c1sc(-c2ccc(Cl)cc2)cc1N1C(=O)CN(S(=O)(=O)c2ccc(N3CCOCC3)nc2)C[C@H]1C1CCCCC1` [Compound 199, 5-(4-Chloro-phenyl)-3-[(R)-2-cyclohexyl-4-(6-morpholin-4-yl-pyridine-3-sulfonyl)-6-oxo-piperazin-1-yl]-thiophene-2-carboxylic acid], the IC50 was not above 100 nM in test [1] (setting [2]) and 2 nM at HCV polymerase.

Regarding `C[C@@H]1CN(c2ccc(S(=O)(=O)N3CC(=O)N(c4cc(-c5ccccc5)sc4C(=O)O)[C@H](C4CCCCC4)C3)cn2)C[C@H](C)N1` [Compound 150, 3-{(R)-2-Cyclohexyl-4-[6-((3R,5S)-3,5-dimethyl-piperazin-1-yl)-pyridine-3-sulfonyl]-6-oxo-piperazin-1-yl}-5-phenyl-thiophene-2-carboxylic acid], the IC50 is not above 100 nM in test [1] (setting [2]) and 4 nM on HCV polymerase.

In the case of `COc1ccc(S(=O)(=O)N2CC(=O)N(c3cc(-c4ccccc4)sc3C(=O)O)C(C3CCCCC3)C2)cc1OC` (stereo not drawn) [Compound 102, 3-[2-Cyclohexyl-4-(3,4-dimethoxy-benzenesulfonyl)-6-oxo-piperazin-1-yl]-5-phenyl-thiophene-2-carboxylic acid], the IC50 is 100 to 5000 nM in test [1] (between 100 nM and 5.0 uM); 4.5 nM at HCV polymerase.

`O=C(O)c1sc(-c2ccccc2)cc1N1C(=O)CN(S(=O)(=O)c2ccc(NC3CCOCC3)nc2)C[C@H]1C1CCCCC1` [Compound 194, 3-{(R)-2-Cyclohexyl-6-oxo-4-[6-(tetrahydro-pyran-4-ylamino)-pyridine-3-sulfonyl]-piperazin-1-yl}-5-phenyl-thiophene-2-carboxylic acid]: the IC50 in test [1] (setting [2]) was not above 100 nM; at HCV polymerase, 2 nM.

For the molecule `CC(C)(C)C#Cc1cc(N2C(=O)CN(S(=O)(=O)c3cccc(F)c3)C[C@H]2C2CCCCC2)c(C(=O)O)s1` [Compound 239, 3-[(R)-2-Cyclohexyl-4-(3-fluoro-benzenesulfonyl)-6-oxo-piperazin-1-yl]-5-(3,3-dimethyl-but-1-ynyl)-thiophene-2-carboxylic acid], the IC50 in test [1] (setting [2]) was not above 100 nM; on HCV polymerase it was 2 nM.

`O=C(O)c1sc(-c2ccccc2)cc1N1C(=O)CN(S(=O)(=O)c2cccc(OC(F)(F)F)c2)CC1C1CCCCC1` (stereo not drawn) [Compound 59]: the IC50 in test [1] (between 100 nM and 5.0 uM) was 100 to 5000 nM; on HCV polymerase, 39 nM.

In the case of `O=C(O)c1sc(-c2ccc(F)cc2)cc1N1C(=O)CN(S(=O)(=O)c2ccc(N3CCCOCC3)nc2)C[C@H]1C1CCCCC1` [Compound 186, 3-[(R)-2-Cyclohexyl-4-(6-[1,4]oxazepan-4-yl-pyridine-3-sulfonyl)-6-oxo-piperazin-1-yl]-5-(4-fluoro-phenyl)-thiophene-2-carboxylic acid], the figures for the IC50 (in test [1] (setting [2]); at HCV polymerase) were not above 100 nM and 1 nM, respectively.

Take `O=C(O)c1sc(-c2ccccc2)cc1N1C(=O)CN(S(=O)(=O)c2ccc(NCCO)nc2)CC1C1CCCCC1` (stereo not drawn) [Compound 86, 3-{2-Cyclohexyl-4-[6-(2-hydroxy-ethylamino)-pyridine-3-sulfonyl]-6-oxo-piperazin-1-yl}-5-phenyl-thiophene-2-carboxylic acid]: the IC50 in test [1] (setting [2]) was not above 100 nM; on HCV polymerase, 6 nM.

Turning to `Cc1ccc(-c2cc(N3C(=O)CN(S(=O)(=O)c4ccc(N5CCC[C@H]5C)nc4)C[C@H]3C3CCCCC3)c(C(=O)O)s2)cc1` [Compound 180, 3-{(R)-2-Cyclohexyl-4-[6-((R)-2-methyl-pyrrolidin-1-yl)-pyridine-3-sulfonyl]-6-oxo-piperazin-1-yl}-5-p-tolyl-thiophene-2-carboxylic acid], the IC50 is not above 100 nM in test [1] (setting [2]) and less than 0.2 nM at HCV polymerase.

In the case of `O=C(O)c1sc(-c2ccccc2)cc1N1C(=O)CN(S(=O)(=O)c2ccc(N3CCCCC3)nc2)CC1C1CCCCC1` (stereo not drawn) [Compound 84, 3-[2-Cyclohexyl-6-oxo-4-(3,4,5,6-tetrahydro-2H-[1,2′]bipyridinyl-5′-sulfonyl)-piperazin-1-yl]-5-phenyl-thiophene-2-carboxylic acid], the values for the IC50 (in test [1] (setting [2]); at HCV polymerase) were not above 100 nM and 4 nM, respectively.

For `O=C(O)c1sc(-c2ccccc2)cc1N1C(=O)CN(S(=O)(=O)c2ccc(N3CCC3)nc2)CC1C1CCCCC1` (stereo not drawn) [Compound 74, 3-[4-(6-Azetidin-1-yl-pyridine-3-sulfonyl)-2-cyclohexyl-6-oxo-piperazin-1-yl]-5-phenyl-thiophene-2-carboxylic acid], the IC50 in test [1] (setting [2]) is not above 100 nM; on HCV polymerase, 12 nM.

Consider `CC(C)(C)OC(=O)N1CCN(c2ccc(S(=O)(=O)N3CC(=O)N(c4cc(-c5ccccc5)sc4C(=O)O)[C@H](C4CCCCC4)C3)cn2)C[C@@H]1CO` [Compound 161, (R)-4-{5-[(R)-4-(2-Carboxy-5-phenyl-thiophen-3-yl)-3-cyclohexyl-5-oxo-piperazine-1-sulfonyl]-pyridin-2-yl}-2-hydroxymethyl-piperazine-1-carboxylic acid tert-butyl ester], for which the values for the IC50 (in test [1] (setting [2]); at HCV polymerase) were not above 100 nM and 1 nM, respectively.

On to `O=C(O)c1ccc(-c2ccc(S(=O)(=O)N3CC(=O)N(c4cc(-c5ccccc5)sc4C(=O)O)[C@H](C4CCCCC4)C3)cn2)s1` [Compound 210, 3-{(R)-4-[6-(5-Carboxy-thiophen-2-yl)-pyridine-3-sulfonyl]-2-cyclohexyl-6-oxo-piperazin-1-yl}-5-phenyl-thiophene-2-carboxylic acid], for which the IC50 was not below 5000 nM in test [1] (setting [2]) and 3 nM at HCV polymerase.

For the molecule `O=C(O)c1sc(-c2ccccc2)cc1N1C(=O)CN(S(=O)(=O)C2CCN(C(=O)OCc3ccccc3)CC2)CC1C1CCCCC1` (stereo not drawn) [Compound 112, 4-[4-(2-Carboxy-5-phenyl-thiophen-3-yl)-3-cyclohexyl-5-oxo-piperazine-1-sulfonyl]-piperidine-1-carboxylic acid benzyl ester], the IC50 in test [1] (setting [2]) was not below 5000 nM; at HCV polymerase it was 173 nM.

In the case of `CC(C)(C)C#Cc1cc(N2C(=O)CN(S(=O)(=O)c3ccc(F)cc3F)C[C@H]2C2CCCCC2)c(C(=O)O)s1` [Compound 281, 3-[(R)-2-Cyclohexyl-4-(2,4-difluoro-benzenesulfonyl)-6-oxo-piperazin-1-yl]-5-(3,3-dimethyl-but-1-ynyl)-thiophene-2-carboxylic acid], the IC50 in test [1] (setting [2]) was not above 100 nM; on HCV polymerase, 3 nM.
